This assay deals with recombinant DYRK1A kinase (Homo sapiens (Human), UniProt Q13627). As to the kind of experiment: DYRK1A kinase assay (Ser/Thr 18 peptide Z-lyte FRET). The class given is biochemical. As to conditions: DYRK1A kinase activity, Z-lyte Ser/Thr 18 peptide, 15 μM ATP; method text calls the value IC50; read-out: EC50 (the source's name). In short, it runs like this:
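Recombinant enzyme (0.25 μg/mL final) was incubated with 15 μM ATP, 4 μM Ser/Thr 18 peptide and compound (11-point 1:3 series from 10 μM) for 1 h at room temperature, in duplicate. Development reagent was added for 1 h, and coumarin/fluorescein emission ratio gave % phosphorylation; IC50 by non-linear regression.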

Molecules are shown by their SMILES.

On to `COc1nc(NCC(C)(C)F)nn2ccc(-c3cnc4nccn4c3)c12` [Compound 924, N-(2-Fluoro-2-methylpropyl)-5-(imidazo[1,2-a]pyrimidin-6-yl)-4-methoxypyrrolo[2,1-f][1,2,4]triazin-2-amine], for which the IC50 is 2.1 nM.
With `CCC(=O)N1CC[C@H](Nc2nc(OC)c3c(-c4ccc5nnn(CC(F)F)c5c4)ccn3n2)[C@H](F)C1` [Compound 773, 1-((3R,4S)-4-((5-(1-(2,2-Difluoroethyl)-1H-benzo[d][1,2,3]triazol-6-yl)-4-methoxypyrrolo[2,1-f][1,2,4]triazin-2-yl)amino)-3-fluoropiperidin-1-yl)propan-1-one], the IC50 is 0.7 nM.
Regarding `COc1nc(N[C@@H]2CCN(C3CCC3)CC2(F)F)nn2ccc(-c3ccc4nc(C)n(CC(F)F)c4c3)c12` [Compound 140, (R)—N-(1-Cyclobutyl-3,3-difluoropiperidin-4-yl)-5-(1-(2,2-difluoroethyl)-2-methyl-1H-benzo[d]imidazol-6-yl)-4-methoxypyrrolo[2,1-f][1,2,4]triazin-2-amine], the IC50 was 10.7 nM.
For the molecule `COc1nc(N[C@@H]2CCN(C(C)=O)CC2(F)F)nn2ccc(-c3cc(F)c4nc(C)n(CC(F)F)c4c3)c12` [Compound 526, (R)-1-(4-((5-(1-(2,2-Difluoroethyl)-4-fluoro-2-methyl-1H-benzo[d]imidazol-6-yl)-4-methoxypyrrolo[2,1-f][1,2,4]triazin-2-yl)amino)-3,3-difluoropiperidin-1-yl)ethan-1-one], the IC50 turned out to be 1.6 nM.
On to `COc1nc(N[C@H]2C[C@@](C)(NC(C)=O)C2)nn2ccc(-c3ccc4nnn(CC(F)(F)F)c4c3)c12` [Compound 905, N-((1s,3s)-3-((4-Methoxy-5-(1-(2,2,2-trifluoroethyl)-1H-benzo[d][1,2,3]triazol-6-yl)pyrrolo[2,1-f][1,2,4]triazin-2-yl)amino)-1-methylcyclobutyl)acetamide], for which the IC50 amounted to 0.4 nM.
In the case of `COc1nc(NC2CCC3(CC2)COC3)nn2ccc(-c3ccn4nccc4c3)c12` [Compound 395, 4-Methoxy-5-(pyrazolo[1,5-a]pyridin-5-yl)-N-(2-oxaspiro[3.5]nonan-7-yl)pyrrolo[2,1-f][1,2,4]triazin-2-amine] it was 6.2 nM; in that of `COc1nc(N[C@@H]2CCN(C3COC3)CC2(F)F)nn2ccc(-c3ccc4nnn(CC(F)F)c4c3)c12` [Compound 785, (R)—N-(3,3-Difluoro-1-(oxetan-3-yl)piperidin-4-yl)-5-(1-(2,2-difluoroethyl)-1H-benzo[d][1,2,3]triazol-6-yl)-4-methoxypyrrolo[2,1-f][1,2,4]triazin-2-amine], 0.5 nM; in that of `CCN1CC[C@@H](Nc2nc(OC)c3c(-c4ccc5ncnn5c4)ccn3n2)C(F)(F)C1` [Compound 577, (R)-5-([1,2,4]Triazolo[1,5-a]pyridin-6-yl)-N-(1-ethyl-3,3-difluoropiperidin-4-yl)-4-methoxypyrrolo[2,1-f][1,2,4]triazin-2-amine], 6.4 nM.
Regarding `COc1nc(N[C@H]2C[C@@](C)(O)C2)nn2ccc(-c3ccc4nnn(C)c4c3)c12` [Compound 199, cis-3-((4-Methoxy-5-(1-methyl-1H-benzo[d][1,2,3]triazol-6-yl)pyrrolo[2,1-f][1,2,4]triazin-2-yl)amino)-1-methylcyclobutan-1-ol], the IC50 was found to be 5.7 nM.
For the molecule `COc1nc(N[C@H]2CCN(C3(C)COC3)C[C@H]2F)nn2ccc(-c3ccc4nnn(CC(F)F)c4c3)c12` [Compound 764, 5-(1-(2,2-difluoroethyl)-1H-benzo[d][1,2,3]triazol-6-yl)-N-((3R,4S)-3-fluoro-1-(3-methyloxetan-3-yl)piperidin-4-yl)-4-methoxypyrrolo[2,1-f][1,2,4]triazin-2-amine], the IC50 is 0.4 nM.
Take `COc1nc(N[C@H]2CCN(C3COC3)C[C@H]2F)nn2ccc(-c3cc(F)c4nnn(CC(F)F)c4c3)c12` [Compound 818, 5-(1-(2,2-Difluoroethyl)-4-fluoro-1H-benzo[d][1,2,3]triazol-6-yl)-N-((3R,4S)-3-fluoro-1-(oxetan-3-yl)piperidin-4-yl)-4-methoxypyrrolo[2,1-f][1,2,4]triazin-2-amine]: the IC50 was determined as 0.8 nM.

The record behind these values is patent US20240002391A1, “4-ALKOXYPYRROLO[2,1-F][1,2,4]TRIAZINES AND PREPARATION AND USES THEREOF” (BioSplice Therapeutics, Inc., priority 2022, published 2024).
